From ChEMBL document CHEMBL3832553, “DailyMed|setid=be8e0025-5726-4965-9510-e7e657687d23 | AVELOX - moxifloxacin hydrochloride tablet, coated|Lake Erie Medical Supply DBA Quality Care Products LLC” come the findings set out here.

Several values for one entry are separate records, joined by “and”; a condition that tells them apart may be missing. Equal values may be shown once.

Common to all, as to assay type: ADME, organism-based
In series [1] the test system is Homo sapiens. Kind of series: (§1) Pharmacokinetic parameters for Moxifloxacin hydrochloride following single oral or intravenous administration of 400 mg Moxifloxacin to healthy or patient male and/or female. The following applies: in vivo, dosed compound id 1, dosed compound name MOXIFLOXACIN, regimen Single dose, study dosing duration 1 hr, tissue Plasma; for Cmax: po. On the set-up: dose 400 mg, route iv, route oral.

A short description of series [2]: as §1. Also noted: dose 400 mg, route iv, route oral. The following applies: human, in vivo, 400 mg, dosed compound id 1, dosed compound name MOXIFLOXACIN, regimen Single dose, tissue Plasma.
Series [3] deals with Homo sapiens. The series can be described thus: (§2) Pharmacokinetic parameters for Moxifloxacin hydrochloride following multiple oral administration of 400 mg Moxifloxacin to male Japanese or Caucasian healthy or patient male and/or female. The following applies: in vivo, dosed compound id 1, dosed compound name MOXIFLOXACIN, regimen Multiple dose, tissue Plasma. Also noted: dose 400 mg, route iv, route oral.

Series [4] in a line: as §2. Also noted: dose 400 mg, route iv, route oral. The following applies: human, in vivo, 400 mg, dosed compound id 1, dosed compound name MOXIFLOXACIN, regimen Multiple dose, tissue Plasma.
Series [5] is described as follows: Pharmacokinetic parameters for Moxifloxacin hydrochloride following oral administration of Moxifloxacin. To be noted: human, in vivo, dosed compound id 1, dosed compound name MOXIFLOXACIN, tissue Plasma.

For `COc1c(N2C[C@@H]3CCCN[C@@H]3C2)c(F)cc2c(=O)c(C(=O)O)cn(C3CC3)c12.Cl` [MOXIFLOXACIN HYDROCHLORIDE], the AUC is 39300 ng·h/mL in the series on Homo sapiens [1] (gender young male and female); 36100 ng·h/mL in series [2]; 51800 ng·h/mL in the series on Homo sapiens [3] (gender elderly male); 49300 ng·h/mL with Homo sapiens [3] (gender young female); 38000 ng·h/mL with Homo sapiens [3] (gender young male, study dosing duration 1 hr); 48200 ng·h/mL in the series with Homo sapiens [3] (gender young male). For the same molecule, the AUC in series [4] (gender young male and female, read-out: AUC) was determined as 48000 ng·h/mL; in series [4] (read-out: AUC(0-24)), 47000 ng·h/mL. For the same molecule, the Cmax turned out to be 4500 ng/mL in the series on Homo sapiens [1] (gender female); 4300 ng/mL in the series with Homo sapiens [1] (gender male and female); 4400 ng/mL in the series on Homo sapiens [1] (gender male); 3900 ng/mL in the series with Homo sapiens [1] (gender young male and female); 3100 ng/mL in series [2] (po); 6100 ng/mL with Homo sapiens [3] (gender elderly male amd female, study dosing duration 1 hr). Further, the Cmax with Homo sapiens [3] (gender elderly male) is 3800 ng/mL; in the series with Homo sapiens [3] (gender female, study dosing duration 1 hr), 4600 ng/mL; in the series on Homo sapiens [3] (gender male and female, study dosing duration 1 hr), 4100 ng/mL and 4700 ng/mL; with Homo sapiens [3] (gender young female) it was 4200 ng/mL; in the series with Homo sapiens [3] (gender young male), 3600 ng/mL; in series [4] (gender young male and female, read-out: Cmax), 4500 ng/mL. Also, the Cmax in series [4] (read-out: Cmax ss) came out at 4100 ng/mL. Also, the “AUC(0-24)” value with Homo sapiens [3] worked out at 47000 ng·h/mL. Also, the bioavailability in series [5] was determined as 90%.
